Experimental data published in PMC10324562, “Inhibitory NKG2A^+ and absent activating NKG2C^+ NK cell responses are associated with the development of EBV^+ lymphomas” (Frontiers in Immunology, 2023).
Ends that are not written are not given here.

Tested on: EBV-infected K562-CR2-HLA-E*0103/0103 cells
Assay: Cell proliferation assay, K562-CR2-HLA-E*0103/0103
Type: cell-based, human
Settings: GGDPHLPTL-pulsed (300 µM) K562-CR2-HLA-E*0103/0103 with NKG2A+NKG2C- or NKG2A+NKG2C+ NK cells, Monalizumab 10 µg/mL; Figure 2H
Method: (§1) For the cell proliferation assays MHC-I-deficient K562-CR2, K562-CR2-HLA-E*0103/0103 or K562-CR2-HLA-E*0101/0101 target cells were established and maintained as described before ([16]). The cells were then always infected with the marmoset B-lymphoblastoid cell line B95-8 derived EBV-strain, which encodes for the GGDPHLPTL LMP-1 variant, (MOI=1) ([16]) for 3 days. Sorted NKG2C^-NKG2A^+, NKG2C^+NKG2A^- and NKG2C^+NKG2A^+ NK cells were used as effector cells and were quickly thawed at 37°C, washed, and pre-activated overnight in RPMI, 10% FCS, 1% L-glutamine, 10 ng/ml IL-12 and 100 ng/ml IL-18 at 37°C. The NK cells were then harvested by centrifugation at 400xg for 5 minutes and washed once with Opti-MEM. […] All cells were then harvested, fixed with the FIX & PERM Cell Fixation & Cell Permeabilization Kit (Thermo-Scientific) and analysed by flow-cytometry, as described below. […]
(§2) Figure 2 HLA-E variants are associated with the development of EBV^+ lymphomas and inhibit NKG2A^+ NK cells. […] (E) Enriched NKG2A^+NKG2C^- NK cells were co-cultured with EBV-infected K562-CR2, K562-CR2-HLA-E*0103/0103 or K562-CR2-HLA-E*0101/0101 cells and were subsequently analyzed by flow-cytometry. […] Viable EBV-infected K562-CR2-HLA-E*0103/0103 or K562-CR2-HLA-E*0101/0101 cells or enriched NKG2A^+NKG2C^- NK cells was subsequently analysed by flow-cytometry. […]

Molecule | EBV-infected K562-CR2 cell dissemination on blocking of NKG2A
Monalizumab: α-NKG2A blocking monoclonal antibody (Innate Pharma) (antibody, chains of the INN, looked up, V domains shown) VH: QVQLVQSGAEVKKPGASVKVSCKASGYTFTSYWMNWVRQAPGQGLEWMGRIDPYDSETHYAQKLQGRVTMTTDTSTSTAYMELRSLRSDDTAVYYCARGGYDFDVGTLYWFFDVWGQGTTVTVSS VL: DIQMTQSPSSLSASVGDRVTITCRASENIYSYLAWYQQKPGKAPKLLIYNAKTLAEGVPSRFSGSGSGTDFTLTISSLQPEDFATYYCQHHYGTPRTFGGGTKVEIK | reduction

Target: T1, HLA-E on the surface of Raji cells (Homo sapiens, UniProt P13747)
T1 construct: host or cells: Raji cells
Assay: HLA-E stabilisation assay (flow-cytometry)
Type: cell-based
Settings: HLA-E*0101/0101 Raji cells transfected with peptide, HLA-E surface expression after 16h by flow-cytometry; three independent replicates; Figure 1E; read-out: HLA-E upregulation (EC50)
Method: For the HLA-E stabilization experiments, HLA-E*0101/0101-encoding Raji cells (German Collection of Microorganisms and Cell Cultures) were maintained in 90% RPMI 1640 + 10% heat-inactivated FCS (Thermo-Fisher). The cells were individually transfected with indicated concentrations of the LMP-1 peptides (Peptides&Elephants) using the Pierce Protein Transfection Reagent according to the manufacturer’s instructions (Thermo-Fisher). After 16h, the cells were either fixed and analyzed for the HLA-E expression by flow-cytometry as described below, or washed once with Opti-MEM I Reduced Serum Medium (Gibco) and subsequently used in NKG2A^+ NK cell inhibition experiments.
The following conjugated mouse anti-human mAB were used for flow-cytometry: PE-CD19 (4G7), BV421-CD56 (NCAM 16.2), BV510-NKG2A (131411), PE-CD71 (M-A712) (all: BD Biosciences), AF647-NKG2C (134591, R&D Systems), APC-HLA/E (3D12) (Biolegend). Dead cells were identified using 7-AAD, LIVE/DEAD Fixable Green or Near-IR Dead Cell Stain Kit (both: Thermo-Scientific). Flow-cytometry analysis was performed on a FACSCanto2 platform and FACSDiva Version 10.7.2 (BD).
Figure 1 LMP-1-derived peptides are associated with the development of EBV^+ lymphomas and inhibit NKG2A^+ NK cells. (A–D) Distribution of LMP-1 variants in patients with (A) asymptomatic reactivations (N=96), (B) symptomatic reactivations (N=96), (C) EBV^+HL (N=25), (D) EBV^+nHL (N=38). Fractions represent the relative frequency of the LMP-1 peptide GGDPHLPTL, GSDPHLPTL, GGDPHLPPL, GGDPPLPTL, GCDPHLPTL, GIDPHLPTL, GAGPHLPTL, GGDTPLPTL, GDDPHLPTL, GGDPHVPTL and GTDPHLPTL variants. ^+ The frequency of the LMP-1 variants was compared to the asymptomatic cohort by the Chi^2 Test. (E, F) HLA-E stabilisation assay. (E) HLA-E stabilisation assay: Raji cells were incubated with indicated concentrations of the positive control (VMAPRTLFL) or the LMP-1 peptide-derived GGDPHLPTL, GSDPHLPTL, GGDPHLPPL, GGDPPLPTL, GCDPHLPTL, GIDPHLPTL, GAGPHLPTL, GGDTPLPTL, GDDPHLPTL, GGDPHVPTL and GTDPHLPTL variants. The HLA-E surface expression was then assessed after 16h of co-culture by flow-cytometry. Plots represent the mean ( ± SD) of three independent replicates. Each peptide was compared to the positive control using RM one-way ANOVA (with the Geisser-Greenhouse correction). (F) NKG2A^+NKG2C^- NK cell inhibition assay: Raji cells were incubated with indicated concentrations of the positive control (VMAPRTLFL) or the LMP-1 peptide-derived GGDPHLPTL, GSDPHLPTL, GGDPHLPPL, GGDPPLPTL, GCDPHLPTL, GIDPHLPTL, GAGPHLPTL, GGDTPLPTL, GDDPHLPTL, GGDPHVPTL and GTDPHLPTL variants and were then co-cultured with pre-activated NKG2A^+NKG2C^- NK cells from 12 blood donors. Plots represent the mean ( ± SD) of 12 independent replicates. Each peptide was compared to the positive control using RM one-way ANOVA (with the Geisser-Greenhouse correction). p < 0.05 was considered significant. *p < 0.05; **p < 0.01; ***p < 0.001. EBV^+HL, EBV^+ Hodgkin lymphoma, EBV^+nHL, EBV^+ non-Hodgkin lymphoma, Pos. Ctrl., positive control. TEXT PRINTED IN THE PICTURE: (E) Pos. Ctrl.: 81.4 μM | (E) GTDPHLPTL: 167.7 μM | (E) GGDPHLPTL: 162 μM | (E) GGDPPLPTL: 153.8 μM | (E) GIDPHLPTL: 313.9 μM | (E) GCDPHLPTL: 304.8 μM | (E) GDDPHLPTL: 370.3 μM | (E) GAGPHLPTL: 317.1μM | (E) GGDPHVPTL: 759 μM | (E) GSDPHLPTL: 613.9 μM | (E) GGDPHLPPL: 682 μM | (E) GGDTPLPTL: 1110 μM | (F) Pos. […] The y-axis titles are 'HLA-E upregulation' (E) and 'NKG2A+NKG2C- NK cell inhibition' (F). / Panels A–D: the percentages and counts (e.g. 44.8%, 43/96) are frequencies of peptide variants in patient cohorts, not results for a substance, and are left out.

Molecule | EC50
GGDPHLPTL [GGDPHLPTL] | 162 µM
GDDPHLPTL [GDDPHLPTL] | 370 µM
GCDPHLPTL [GCDPHLPTL] | 305 µM
GGDPPLPTL [GGDPPLPTL] | 154 µM
GGDTPLPTL [GGDTPLPTL] | 1110 µM
GIDPHLPTL [GIDPHLPTL] | 314 µM
GGDPHLPPL [GGDPHLPPL] | 682 µM
GAGPHLPTL [GAGPHLPTL] | 317 µM
GGDPHVPTL [GGDPHVPTL] | 759 µM
GTDPHLPTL [GTDPHLPTL] | 168 µM
GSDPHLPTL [GSDPHLPTL] | 614 µM

Tested on: EBV-infected K562-CR2-HLA-E*0101/0101 cells
Assay: Cell proliferation assay, K562-CR2-HLA-E*0101/0101
Type: cell-based, human
Settings: GGDPHLPTL-pulsed (300 µM) K562-CR2-HLA-E*0101/0101 with NKG2A+NKG2C- or NKG2A+NKG2C+ NK cells, Monalizumab 10 µg/mL; Figure 2H
Method: as §1, §2

Molecule | EBV-infected K562-CR2 cell dissemination on blocking of NKG2A
Monalizumab: α-NKG2A blocking monoclonal antibody (Innate Pharma) (antibody, chains of the INN, looked up, V domains shown) VH: QVQLVQSGAEVKKPGASVKVSCKASGYTFTSYWMNWVRQAPGQGLEWMGRIDPYDSETHYAQKLQGRVTMTTDTSTSTAYMELRSLRSDDTAVYYCARGGYDFDVGTLYWFFDVWGQGTTVTVSS VL: DIQMTQSPSSLSASVGDRVTITCRASENIYSYLAWYQQKPGKAPKLLIYNAKTLAEGVPSRFSGSGSGTDFTLTISSLQPEDFATYYCQHHYGTPRTFGGGTKVEIK | reduction
